In ChEMBL document CHEMBL3751785, “Development and structural analysis of adenosine site binding tankyrase inhibitors” (Bioorg Med Chem Lett, 2016):

Assays:
[1] = target: T1, Poly [ADP-ribose] polymerase tankyrase-2 (Homo sapiens, UniProt Q9H2K2); test: Inhibition of human TNKS2 by fluorescence analysis
T1 sequence (Q9H2K2 whole entry): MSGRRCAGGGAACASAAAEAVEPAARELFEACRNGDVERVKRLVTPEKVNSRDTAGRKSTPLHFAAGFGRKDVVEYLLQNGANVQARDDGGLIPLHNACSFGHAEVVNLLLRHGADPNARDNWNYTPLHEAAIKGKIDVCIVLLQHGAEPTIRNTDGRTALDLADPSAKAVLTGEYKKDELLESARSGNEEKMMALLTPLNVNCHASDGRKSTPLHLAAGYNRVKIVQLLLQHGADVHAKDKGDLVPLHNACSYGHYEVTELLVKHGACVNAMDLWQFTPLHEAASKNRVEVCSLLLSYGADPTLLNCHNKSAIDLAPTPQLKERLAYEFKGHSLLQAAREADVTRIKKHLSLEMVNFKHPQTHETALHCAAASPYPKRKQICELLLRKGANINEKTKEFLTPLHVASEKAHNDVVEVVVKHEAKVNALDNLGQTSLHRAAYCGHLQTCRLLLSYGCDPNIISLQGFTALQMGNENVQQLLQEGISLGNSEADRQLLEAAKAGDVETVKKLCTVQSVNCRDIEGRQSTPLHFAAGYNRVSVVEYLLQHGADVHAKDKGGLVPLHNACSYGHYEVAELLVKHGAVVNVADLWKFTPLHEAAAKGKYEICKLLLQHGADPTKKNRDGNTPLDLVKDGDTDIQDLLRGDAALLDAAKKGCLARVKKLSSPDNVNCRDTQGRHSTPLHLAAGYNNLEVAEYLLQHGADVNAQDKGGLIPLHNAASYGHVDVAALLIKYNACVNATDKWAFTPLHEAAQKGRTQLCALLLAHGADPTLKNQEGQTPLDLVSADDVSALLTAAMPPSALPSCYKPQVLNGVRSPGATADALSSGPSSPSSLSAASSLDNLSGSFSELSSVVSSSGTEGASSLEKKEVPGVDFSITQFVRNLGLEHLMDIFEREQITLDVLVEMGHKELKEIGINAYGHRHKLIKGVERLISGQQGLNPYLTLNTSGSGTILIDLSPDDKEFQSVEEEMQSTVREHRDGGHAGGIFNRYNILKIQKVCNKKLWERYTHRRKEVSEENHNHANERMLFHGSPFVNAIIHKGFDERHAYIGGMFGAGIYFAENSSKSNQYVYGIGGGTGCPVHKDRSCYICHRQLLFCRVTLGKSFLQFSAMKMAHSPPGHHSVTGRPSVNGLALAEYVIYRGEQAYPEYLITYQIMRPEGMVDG

[2] = target: T2, Protein mono-ADP-ribosyltransferase PARP12 (Homo sapiens, UniProt Q9H0J9); test: Inhibition of human ARTD12 by fluorescence analysis
T2 sequence (Q9H0J9 whole entry): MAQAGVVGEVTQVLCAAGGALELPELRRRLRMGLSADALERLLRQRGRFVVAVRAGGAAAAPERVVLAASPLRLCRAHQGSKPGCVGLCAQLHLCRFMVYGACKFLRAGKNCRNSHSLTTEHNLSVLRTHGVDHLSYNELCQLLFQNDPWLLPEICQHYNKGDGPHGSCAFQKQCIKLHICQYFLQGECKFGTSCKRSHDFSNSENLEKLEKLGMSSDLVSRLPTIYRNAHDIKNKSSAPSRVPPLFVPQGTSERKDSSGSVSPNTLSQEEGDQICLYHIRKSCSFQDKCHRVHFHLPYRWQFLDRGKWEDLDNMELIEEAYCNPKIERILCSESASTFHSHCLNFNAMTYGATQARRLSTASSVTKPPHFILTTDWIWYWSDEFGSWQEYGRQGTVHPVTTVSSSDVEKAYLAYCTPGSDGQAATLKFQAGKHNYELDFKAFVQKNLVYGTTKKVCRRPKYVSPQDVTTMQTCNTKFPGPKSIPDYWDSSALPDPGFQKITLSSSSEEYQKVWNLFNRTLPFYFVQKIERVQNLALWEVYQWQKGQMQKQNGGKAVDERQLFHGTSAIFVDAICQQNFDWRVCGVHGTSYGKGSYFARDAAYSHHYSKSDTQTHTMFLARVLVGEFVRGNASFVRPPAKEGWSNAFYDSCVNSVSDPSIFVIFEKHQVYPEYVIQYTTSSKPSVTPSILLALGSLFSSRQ

[3] = target: Protein mono-ADP-ribosyltransferase PARP4 (Homo sapiens, UniProt Q9UKK3); test: Inhibition of human ARTD4 by fluorescence analysis
Sequence of Protein mono-ADP-ribosyltransferase PARP4 (Q9UKK3 whole entry): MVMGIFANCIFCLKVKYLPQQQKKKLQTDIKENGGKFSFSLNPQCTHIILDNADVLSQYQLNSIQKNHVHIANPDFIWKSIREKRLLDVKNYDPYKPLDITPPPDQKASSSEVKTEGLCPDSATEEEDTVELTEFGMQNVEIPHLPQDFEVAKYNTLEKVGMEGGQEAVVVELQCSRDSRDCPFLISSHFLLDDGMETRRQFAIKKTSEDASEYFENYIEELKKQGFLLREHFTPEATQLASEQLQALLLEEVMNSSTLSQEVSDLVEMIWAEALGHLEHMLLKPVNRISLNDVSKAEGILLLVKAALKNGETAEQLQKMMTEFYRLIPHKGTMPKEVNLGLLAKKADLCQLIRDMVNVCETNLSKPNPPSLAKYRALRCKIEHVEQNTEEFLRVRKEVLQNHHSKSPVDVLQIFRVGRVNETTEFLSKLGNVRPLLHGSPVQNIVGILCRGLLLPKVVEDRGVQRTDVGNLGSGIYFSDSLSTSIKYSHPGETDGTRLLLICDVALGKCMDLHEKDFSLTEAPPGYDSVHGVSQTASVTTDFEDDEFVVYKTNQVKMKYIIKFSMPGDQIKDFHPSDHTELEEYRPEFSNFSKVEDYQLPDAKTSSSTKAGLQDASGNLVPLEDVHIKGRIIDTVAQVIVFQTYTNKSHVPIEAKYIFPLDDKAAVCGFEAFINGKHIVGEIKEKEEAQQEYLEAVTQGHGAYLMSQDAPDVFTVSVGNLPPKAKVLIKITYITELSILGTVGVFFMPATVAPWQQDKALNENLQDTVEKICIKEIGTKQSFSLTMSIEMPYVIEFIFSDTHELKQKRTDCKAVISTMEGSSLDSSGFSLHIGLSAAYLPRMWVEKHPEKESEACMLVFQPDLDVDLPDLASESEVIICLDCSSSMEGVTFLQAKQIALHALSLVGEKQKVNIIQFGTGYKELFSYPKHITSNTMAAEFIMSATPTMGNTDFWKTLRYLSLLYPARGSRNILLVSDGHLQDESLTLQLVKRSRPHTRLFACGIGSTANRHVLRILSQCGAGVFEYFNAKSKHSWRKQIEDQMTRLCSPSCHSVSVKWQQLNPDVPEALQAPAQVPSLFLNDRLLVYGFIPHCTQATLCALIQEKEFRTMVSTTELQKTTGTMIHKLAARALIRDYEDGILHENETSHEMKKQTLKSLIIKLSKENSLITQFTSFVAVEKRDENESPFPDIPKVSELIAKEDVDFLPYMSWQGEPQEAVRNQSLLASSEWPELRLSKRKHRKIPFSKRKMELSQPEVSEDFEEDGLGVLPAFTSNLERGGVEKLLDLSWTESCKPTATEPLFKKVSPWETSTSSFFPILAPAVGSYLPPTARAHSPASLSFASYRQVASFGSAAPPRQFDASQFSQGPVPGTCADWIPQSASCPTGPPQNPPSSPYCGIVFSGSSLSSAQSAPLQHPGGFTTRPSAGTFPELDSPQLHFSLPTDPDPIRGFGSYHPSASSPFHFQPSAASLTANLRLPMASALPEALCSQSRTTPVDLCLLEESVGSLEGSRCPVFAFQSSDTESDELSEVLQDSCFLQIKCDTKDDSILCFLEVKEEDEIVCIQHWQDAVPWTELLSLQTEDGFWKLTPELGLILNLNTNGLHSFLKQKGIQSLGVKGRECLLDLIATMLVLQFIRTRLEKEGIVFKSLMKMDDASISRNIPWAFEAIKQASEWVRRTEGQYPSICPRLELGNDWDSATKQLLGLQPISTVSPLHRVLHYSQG

[4] = target: T3, Protein mono-ADP-ribosyltransferase PARP15 (Homo sapiens, UniProt Q460N3); test: Inhibition of human ARTD7 by fluorescence analysis
T3 sequence (Q460N3 whole entry): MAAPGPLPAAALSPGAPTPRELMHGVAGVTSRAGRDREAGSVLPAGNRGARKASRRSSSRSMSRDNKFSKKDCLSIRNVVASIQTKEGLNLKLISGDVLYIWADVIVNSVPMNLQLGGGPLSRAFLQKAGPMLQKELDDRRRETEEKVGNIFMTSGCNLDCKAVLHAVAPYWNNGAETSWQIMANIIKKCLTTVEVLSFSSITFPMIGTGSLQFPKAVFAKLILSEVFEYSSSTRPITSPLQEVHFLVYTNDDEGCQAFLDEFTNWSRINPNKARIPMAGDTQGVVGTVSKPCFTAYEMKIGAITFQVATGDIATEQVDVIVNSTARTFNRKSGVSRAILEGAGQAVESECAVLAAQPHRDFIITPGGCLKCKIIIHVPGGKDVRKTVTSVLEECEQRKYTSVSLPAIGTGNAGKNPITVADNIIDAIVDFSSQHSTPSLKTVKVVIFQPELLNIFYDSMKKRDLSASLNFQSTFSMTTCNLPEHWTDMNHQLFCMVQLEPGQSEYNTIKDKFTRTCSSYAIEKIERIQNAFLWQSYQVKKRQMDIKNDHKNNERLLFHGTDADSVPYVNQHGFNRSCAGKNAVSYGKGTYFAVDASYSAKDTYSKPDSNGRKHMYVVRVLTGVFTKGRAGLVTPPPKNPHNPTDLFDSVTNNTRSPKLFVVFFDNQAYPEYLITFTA

[5] = target: Protein mono-ADP-ribosyltransferase PARP14 (Homo sapiens, UniProt Q460N5); test: Inhibition of human ARTD8 by fluorescence analysis
Sequence of Protein mono-ADP-ribosyltransferase PARP14 (Q460N5 whole entry): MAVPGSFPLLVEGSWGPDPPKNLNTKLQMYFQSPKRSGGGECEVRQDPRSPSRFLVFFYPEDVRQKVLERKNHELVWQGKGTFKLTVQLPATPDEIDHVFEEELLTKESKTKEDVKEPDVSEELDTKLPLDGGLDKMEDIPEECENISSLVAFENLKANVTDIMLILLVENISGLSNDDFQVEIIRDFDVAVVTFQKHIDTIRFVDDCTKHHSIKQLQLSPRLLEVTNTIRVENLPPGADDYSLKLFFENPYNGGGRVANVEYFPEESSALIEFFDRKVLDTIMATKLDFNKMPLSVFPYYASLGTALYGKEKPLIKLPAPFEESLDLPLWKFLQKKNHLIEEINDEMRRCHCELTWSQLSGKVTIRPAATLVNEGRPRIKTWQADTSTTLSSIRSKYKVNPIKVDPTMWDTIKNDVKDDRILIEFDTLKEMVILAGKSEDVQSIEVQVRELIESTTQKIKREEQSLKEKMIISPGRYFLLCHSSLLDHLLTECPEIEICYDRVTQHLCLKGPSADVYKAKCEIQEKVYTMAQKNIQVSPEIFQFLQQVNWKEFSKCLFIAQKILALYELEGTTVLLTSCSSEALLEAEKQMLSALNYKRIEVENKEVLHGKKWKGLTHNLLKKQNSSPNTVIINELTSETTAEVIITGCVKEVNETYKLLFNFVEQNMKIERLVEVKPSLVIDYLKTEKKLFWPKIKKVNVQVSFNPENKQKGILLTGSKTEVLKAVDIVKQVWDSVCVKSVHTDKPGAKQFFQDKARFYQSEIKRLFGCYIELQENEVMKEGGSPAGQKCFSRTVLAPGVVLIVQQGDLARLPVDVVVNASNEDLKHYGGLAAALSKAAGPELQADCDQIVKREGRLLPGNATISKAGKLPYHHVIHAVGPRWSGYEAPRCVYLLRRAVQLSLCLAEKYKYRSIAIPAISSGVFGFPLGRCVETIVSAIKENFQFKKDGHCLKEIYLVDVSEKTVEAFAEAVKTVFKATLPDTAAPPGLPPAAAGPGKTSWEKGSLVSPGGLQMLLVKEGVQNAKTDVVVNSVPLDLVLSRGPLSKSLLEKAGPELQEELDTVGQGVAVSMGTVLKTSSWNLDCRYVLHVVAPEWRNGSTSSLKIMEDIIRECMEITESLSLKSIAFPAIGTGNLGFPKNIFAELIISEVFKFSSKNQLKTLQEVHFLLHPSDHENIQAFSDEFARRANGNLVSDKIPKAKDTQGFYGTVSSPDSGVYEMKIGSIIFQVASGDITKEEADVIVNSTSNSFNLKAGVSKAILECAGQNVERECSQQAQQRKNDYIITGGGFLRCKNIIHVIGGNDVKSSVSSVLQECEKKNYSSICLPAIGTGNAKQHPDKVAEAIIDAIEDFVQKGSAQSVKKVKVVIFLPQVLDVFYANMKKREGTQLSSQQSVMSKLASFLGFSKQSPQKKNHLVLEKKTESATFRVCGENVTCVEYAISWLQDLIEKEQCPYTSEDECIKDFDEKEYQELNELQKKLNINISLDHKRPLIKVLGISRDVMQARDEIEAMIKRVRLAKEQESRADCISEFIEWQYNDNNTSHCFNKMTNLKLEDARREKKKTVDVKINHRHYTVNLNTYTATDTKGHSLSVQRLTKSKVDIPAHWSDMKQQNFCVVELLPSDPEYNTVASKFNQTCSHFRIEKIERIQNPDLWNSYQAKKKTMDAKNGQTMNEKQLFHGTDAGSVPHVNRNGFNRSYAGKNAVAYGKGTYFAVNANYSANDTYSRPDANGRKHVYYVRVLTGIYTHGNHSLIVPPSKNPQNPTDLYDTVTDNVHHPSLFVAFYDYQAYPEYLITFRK

COc1ccc(C2(CNC(=O)c3ccc(NC(=O)c4ccco4)cc3Cl)CCOCC2)cc1
IC50 ([1]; read-out: IC50): 2.15 µM
IC50 ([1]; read-out: pIC50 (converted)): 2.14 µM
IC50 [2]: > 10 µM
IC50 [3]: > 100 µM
IC50 [4]: > 10 µM
IC50 [5]: > 10 µM
